US20160279190A1, “MODULATION OF AXON DEGENERATION” (GENENTECH, INC., priority 2008, published 2016)

Columns and labels:
[1] = tested on: cerebellar granule neurons (CGNs); test: serum deprivation/KCl reduction-induced degeneration; type: cell-based, mouse; settings: inhibitor 5 μM; 5 mM KCl, 24 hours
Description: Kinase inhibitors (inhibitors of GSK3, JNK, EGFR, p38, and CaMKK) were tested for their capacity to protect cultured cerebellar granule neurons (CGNs) following serum deprivation/KCl reduction. Briefly, CGNs isolated from P7 mouse brain were cultured on PDL- and laminin-coated 96-well tissue culture dishes in medium containing serum and potassium (Basal Medium Eagles including 29 mM KCl and 10% FBS) at 37° C. After 24 hours in culture, cells were switched to “deprivation” medium (Basal Medium Eagles including 5 mM KCl), alone or in combination with various small molecule inhibitors as shown in Table 8. After a further 24 hours in culture, the neurons were fixed with 4% paraformaldehyde and stained with a neuronal marker (anti-class III β-Tubulin, Covance). Image acquisition was performed using the ImageXpress automated imaging system (Molecular Devices).

DRGs = test: Campenot chamber local axon degeneration, anti-NGF in axon compartment; type: cell-based, mouse; settings: inhibitor 15 μM; anti-NGF in axon compartment, 28 hours
Description: Teflon dividers (Tyler Research) were cleaned by washing in water and wiping them clean of any residual grease. Dividers were then soaked in Nochromix (Godax Laboratories)/sulfuric acid overnight, rinsed five times in distilled and autoclaved water (SQ water), boiled for 30 minutes, and then air-dried before use.
Mouse laminin (5 μg/ml in sterile filtered water; Invitrogen) was added to PDL coated 35 mm dishes (BD Biosciences) and they were incubated for 1 hour at 37° C., followed by two rinses in SQ water. The dishes were vacuum-dried and then air-dried in a laminar flow hood for 15 minutes. Prepared dishes were then scored with a pin rake (Tyler Research). […] High vacuum grease (VWR) was added to each Teflon divider under a dissection scope. The laminin coated PDL dishes were inverted and dropped onto the Teflon divider, with additional pressure added by use of a toothpick in the non-track-containing regions. Dishes were incubated for 1 hour at 37° C. Five hundred microliters of NBM+MC (50 ng/ml NGF) solution was added to each of the side compartments, and a grease barrier was added in front of the center cell slot.
Free E13.5 spinal cords were dissected from mouse embryos and placed into NBM+MC (25 ng/ml NGF) solution. DRGs were detached from the spinal cord with a tungsten needle. An NBM+MC-lubricated P200 pipette was used to move DRGs into a 1.5 ml tube. DRGs were pelleted with a tabletop centrifuge for 30 seconds. The supernate was discarded and 0.05% Trypsin/EDTA (cold) was added. The pellet was resolubilized with a pipette and incubated at 37° C. for 15 minutes with constant agitation (650 RPM). The sample was again centrifuged and the supernate discarded. The pellet was resuspended in warm NBM+MC (50 ng/ml NGF) solution and triturated with a flamed glass pipette 20 times, followed by trituration with a fire-bored glass pipette another 20 times. The samples were again centrifuged and the resulting pellets were resuspended in 0.5 ml NBM+MC (50 ng/ml NGF) solution. The cells were diluted to a final concentration of 2.5×10^6 cells/ml. The cell suspensions were loaded into a 1 ml syringe with a 22 gauge needle. The center slot of the Campenot divider was filled using the syringe (to a volume of at least 50 μl). The Campenot chamber was incubated overnight at 37° C. 2.5 ml NGF+MC (50 ng/ml NGF) solution was added to the center compartment and the grease gate was removed. The outer medium (cell body compartment) was replaced after three days with 2.5 ml NBM+MC medium (with 25 ng/ml NGF). After five days in culture, one distal compartment was washed three times with warmed NBM+MC (no NGF) solution. After the third wash, 500 μl NBM+MC (no NGF) solution was added to the axon compartment in combination with either 0.5% DMSO or an inhibitor. The cell body compartment was replaced with 2.5 ml NBM+MC medium (with 25 ng/ml NGF) containing either 0.5% DMSO or inhibitor.
After 28 hours of anti-NGF antibody treatment, 8% PFA/30% sucrose solution (see above) was added directly to the culture medium at a 1:1 dilution and incubated for 30 minutes. The Teflon divider was removed after the first 15 minutes of addition. The system was washed once with 2.5 ml PBS prior to immunostaining. Neurons were blocked in 5% BSA/0.2% triton in PBS for 30 minutes. The primary antibody Tuj1 (Covance) was added to a final dilution of 1:1000 in PBS containing 2% BSA and incubated overnight at 4° C. The dish was washed once with PBS. […] The dish was washed twice with PBS, and a 22×22 mm coverslip (VWR) was added with 350 μl of fluoromount G (Electron Microscopy Sciences). The neurons were visualized by use of a fluorescence microscope.
As described above, E13.5 DRGs were isolated and grown for 5 days in a Campenot chamber.

O=C(O)c1ccc2c3c1cccc3c(=O)n1c3ccccc3nc21 [STO-609]
protection of cerebellar granule neurons from serum deprivation/KCl reduction [1]: protect cerebellar granule neurons from serum deprivation/KCl reduction
Axon Compartment (axon protected when inhibitor is in axon compartment) (DRGs): Yes (1)
Cell Body Compartment (axon protected when inhibitor is in cell body compartment) (DRGs): No (1)
